Data from patent publication US9402837B2, “Method for the treatment of neurological disorders by enhancing the activity of β-glucocerebrosidase” (Amicus Therapeutics, Inc., priority 2006, dated 2016).
Structures can show the parent of a compound that is named as a salt.

Tests used:
[1] = test system: α-synuclein; test: α-synuclein accumulation in brains of V394L knock-in mice treated with CBE; assay type: in vivo; conditions: CBE daily i.p. for 30 days
Protocol: Mice homozygous for the point mutations D409H or V394L and expressing a low level of saposin C in a prosaposin knock-out background, were analyzed for accumulation of α-synuclein in the brain. These mice have been reported to accumulate glucosylceramide in the brain. Mice homozygous for the point mutations V394L only, were analyzed for α-synuclein accumulation with and without CBE treatment. […] Mice were administered CBE daily by interperitonally injection for 30 consequitive days ([…] calculated from the total weight of the mouse) and brains were analyzed by immunohistochemistry for accumulation of α-synuclein.
Brain tissue was frozen and fixed for immunohistochemistry with 4% paraformaldehyde and serial sections were co-labelled with anti-human α-synuclein (ab1903; Abcam, Cambridge, Mass.) and rabbit anti-ubiquitin (ab7780; Abcam, Cambridge, Mass.).

[2] = Phase I pharmacokinetics of oral IFG tartrate in healthy volunteers; assay type: in vivo, human; conditions: for accumulation after repeated doses: multiple-dose study, 7 days oral, Day 1 vs Day 7
Protocol: (§1) In a first-in-human single ascending dose study (1a), doses of 8, 25, 75, 150 (two cohorts), and 300 mg were administered (6 active, 2 placebo in each cohort). In a multiple ascending dose study (1b), doses of 25, 75, and 225 mg were administered daily for seven days (6 active, 2 placebo in each cohort). In both studies, of the eight subjects in each group; six were randomized to receive IFG tartrate, and two subjects received placebo. Subjects were confined from the evening of day-1 until 24 hrs after completion of dosing. In the phase 1a study subjects returned at 48 hrs (PK sampling) and 7 days (safety follow-up) following dosing. In the phase 1b study subjects returned at 48 h (PD sampling), 7 days (PD sampling and safety follow-up), and 14 days (PD sampling) following the last dose
Subjects were healthy male and female volunteers between 19 and 55 years of age (inclusive) consisting of members of the community at large.
Blood samples (10 mL each) were collected in blood collection tubes containing EDTA before dosing was determined at regular intervals for the phas 1a during 48 hr following dosing. In the phase 1b study a full IFG tartrate pharmacokinetic profile was determined for 24 hr following the first dose, Cmin values were obtained pre-dose on day 6 and 7, and another full profile was determined for 24 hr following the final, day 7, dose.

[3] = Phase I safety and tolerability in healthy volunteers; assay type: in vivo, human
Protocol: as §1
Safety was determined by evaluating vital signs, laboratory parameters (serum chemistry, hematology, and urinalysis), physical examination and by recording adverse events during the Treatment Period.
Safety data including laboratory evaluations, physical exams, adverse events, ECG monitoring and vital signs assessments were summarized by treatment group and point of time of collection. Descriptive statistics (arithmetic mean, standard deviation, median, minimum and maximum) were calculated for quantitative safety data as well as for the difference to baseline. Frequency counts were compiled for classification of qualitative safety data.

[4] = test system: α-synuclein; test: α-synuclein immunohistochemistry in transgenic mice over-expressing α-synuclein; assay type: in vivo
Protocol: 48 transgenic animals (male and female) were allocated to 6 groups (n=8) at an age of 5 to 6 weeks concerning baseline and 3 to 4 weeks, respectively concerning all other treatment groups at treatment start. One group of transgenic animals served as baseline group (5 weeks old) and was sacrificed untreated on day 0. One group of transgenic animals was treated with vehicle.
Mice (ages 3-4 weeks) were treated once daily (orally) at either 2 mg/kg; 20 mg/kg; or 200 mg/kg of IFG tartrate for 3 months. One group also was treated once every other day at 20 mg/kg.
Animals of the baseline group were sacrificed at an age of 5 weeks. All other animals were sacrificed at the end of the 3 months treatment period and blood for preparation of serum and macrophages as well as lung, brain and CSF were extracted. Therefore, all mice were sedated by standard inhalation anesthesia (Isofluran, Baxter). Cerebrospinal fluid was obtained by blunt dissection and exposure of the foramen magnum. Upon exposure, a Pasteur pipette was inserted to the approximate depth of 0.3-1 mm into the foramen magnum. CSF was collected by suctioning and capillary action until flow fully ceases. CSF was immediately frozen and kept at −80° C.
After CSF sampling, each mouse was placed in dorsal recumbence, the thorax was opened and a 26-gauge needle attached to a 1 cc syringe was inserted into the right cardiac ventricular chamber. Light suction was applied to the needle. Blood was separated into 2 parts. […] Mice were transcardially perfused with physiological (0.9%) saline and lung tissue as well as brain was rapidly removed. The lungs were rinsed in cold PBS (outside only) to remove blood and then they were quick frozen.
The brains were removed and hemisected. The right hemispheres of all mice were immersion fixed in freshly produced 4% paraformaldehyde/PBS (pH 7.4) for one hour at room temperature. Thereafter brains were transferred to a 15% sucrose PBS solution for 24 hours to ensure cryoprotection. On the next day brains were frozen in liquid isopentane and stored at −80° C. until used for histological investigations. To determine the effects of the IFG-tartrate treatment from 8 animals per group 10 μm-thick cryosections were cut for determination of alpha-synuclein pathology. All organs and tissues mentioned were sampled and from specific brain regions i.e. hippocampus, midbrain, frontal cortex and striatum of one hemibrain were extracted and frozen. The other brain half was processed for histological evaluation.
For evaluation of the number of α-synuclein positive cells and Lewy body like inclusions an immunohistochemical staining was carried out using the monoclonal human alpha-synuclein specific antibody (Alexis@; Cat#804-258-L001), dilution 1:5, detected with secondary Cy2 antibody (Jackson Immunoresearch®). The number of alpha-synuclein positive cells in five different layers, one slice per layer, was counted for evaluation in the whole hippocampus and cortex seperately.
Briefly, samples were washed for 10 min with PBS at room temperature, followed by fixing for 30 min at room temperature with 4% paraformaldehyde, followed by washing 2 times for 5 min each with PBS at room temperature. For Proteinase K-treated sections, sections were incubated in PBS containing 10 μg/ml proteinase-K for 10 minutes at room temperature. Next, samples were incubated for 15 min at room temperature with blocking solution to block endogenous peroxidase, followed by two more 5 min washes with PBS. Samples were then incubated for 60 min at room temperature with a blocking reagent to block non-specific binding, followed by two more 5 min washes with PBS. Samples were then incubated with M.O.M. diluent for 5 min at room temperature, followed by incubation with the primary antibody (dilution 1:5 in M.O.M. diluent) for 60 min with at room temperature. […]

[5] = target: GCase (Homo sapiens (Human), UniProt P04062); test: GCase enzymatic activity in healthy volunteers receiving IFG; assay type: in vivo
GCase (Homo sapiens (Human), UniProt P04062), sequence (P04062 40-536): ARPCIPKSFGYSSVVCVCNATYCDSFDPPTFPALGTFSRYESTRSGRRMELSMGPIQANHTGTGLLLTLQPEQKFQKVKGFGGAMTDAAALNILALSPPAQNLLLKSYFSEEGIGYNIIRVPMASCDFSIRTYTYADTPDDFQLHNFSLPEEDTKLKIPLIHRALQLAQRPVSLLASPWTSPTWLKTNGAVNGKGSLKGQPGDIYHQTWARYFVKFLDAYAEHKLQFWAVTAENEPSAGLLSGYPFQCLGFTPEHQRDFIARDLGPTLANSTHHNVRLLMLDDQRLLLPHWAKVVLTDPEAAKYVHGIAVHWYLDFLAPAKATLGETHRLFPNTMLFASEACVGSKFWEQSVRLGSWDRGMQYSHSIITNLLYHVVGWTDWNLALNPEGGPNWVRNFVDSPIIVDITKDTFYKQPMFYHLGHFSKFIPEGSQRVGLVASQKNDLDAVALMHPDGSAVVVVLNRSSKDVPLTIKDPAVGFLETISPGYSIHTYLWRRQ
Protocol: as §1
GCase activity was determined pre-dose on days 1, 3, 5, 7, 9, 14, and 21. Blood samples were cooled in an ice bath and centrifuged under refrigeration as soon as possible. Plasma samples were divided into two aliquots and stored at […] pending assay. At the end of the study, all samples were transferred to MDS Pharma Services Analytical Laboratories (Lincoln) for analysis.

[6] = target: GCase (Mus musculus (Mouse), UniProt P17439); test: In vivo GCase activity in normal mice upon treatment with IFG
GCase (Mus musculus (Mouse), UniProt P17439), sequence (P17439 20-515): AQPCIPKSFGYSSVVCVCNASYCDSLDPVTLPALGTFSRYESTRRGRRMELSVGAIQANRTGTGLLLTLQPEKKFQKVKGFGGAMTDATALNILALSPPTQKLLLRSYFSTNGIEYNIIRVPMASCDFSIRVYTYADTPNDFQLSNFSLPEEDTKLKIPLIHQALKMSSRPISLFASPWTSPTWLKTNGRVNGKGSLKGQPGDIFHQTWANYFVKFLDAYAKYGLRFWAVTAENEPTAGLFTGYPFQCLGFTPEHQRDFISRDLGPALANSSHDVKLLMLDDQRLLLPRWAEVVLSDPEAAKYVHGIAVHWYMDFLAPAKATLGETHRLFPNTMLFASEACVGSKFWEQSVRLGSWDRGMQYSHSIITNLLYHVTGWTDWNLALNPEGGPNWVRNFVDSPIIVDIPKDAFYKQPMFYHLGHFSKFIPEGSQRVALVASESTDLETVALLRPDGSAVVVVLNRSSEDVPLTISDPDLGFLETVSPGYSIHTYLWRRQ
Protocol: This Example provides information on the effects of isofagomine, a GCase-specific chaperone on mice. […] Ten male C57BL6 (25 g) mice per group were used. The drug was be given in the drinking water, therefore water consumption was monitored daily.
In the control group (0 mg/kg/day), the mice were dosed daily in the drinking water (no drug) and divided into two groups. Ten animals were euthanized after 4 weeks of treatment, blood was collected from the descending aorta or vena cava, and tissues were harvested and then necropsied.
In the test group, 10 mice were dosed daily in the drinking water with an administration aim of 200 mg/kg/day.
The blood samples were drawn into lithium heparin and spun for plasma. After bleeding, the spleen, lung, brain and liver were removed and placed into vials. The vials were put into dry ice for rapid freezing. The tissues and plasma were then analyzed for tissue levels of GCase.
Small portions of tissue were removed and added to 500 μl lysis buffer (20 mM sodium citrate and 40 mM disodium hydrogen phosphate, pH 4.0, including 0.1% Triton X-100). Tissues were then homogenized using a microhomogenizer for a brief time, followed by centrifugation at 10,000 rpm for 10 minutes at 4° C. Supernatants were transferred to a new tube and used for the enzyme assay.
The enhancement ratio is equal to the activity with the compound over the activity without the compound.

Row | systemic exposure via the oral route ([2]; healthy volunteers) | accumulation after repeated doses [2] | increase in GCase levels above baseline ([5]; healthy volunteers, treatment period, dose-related, maximum reached) | GCase levels after removal of the drug ([5]; two weeks after the last dose) | wild-type GCase activity dose-response ([6]; mice treated with 0, 1, 10, or 100 mg/kg/day) | GCase levels in tissues ([6]; normal C57BL6 mice, 200 mg/kg/day in drinking water, liver, spleen, brain and lung) | sex differences in pharmacokinetic parameters ([2]; repeated doses) | Structure (SMILES) | α-synuclein in the brain [1] | plasma AUC and Cmax versus administered dose ([2]; single-dose study) | serious adverse events ([3]; healthy volunteers, both Phase I studies) | tolerability ([3]; healthy volunteers, single (8-300 mg) and multiple (25-225 mg, 7 days) oral doses) | number of α-synuclein immunoreactive cells in the hippocampus versus vehicle ([4]; 2 mg/kg daily, 3 months) | age-accompanied increase of α-synuclein positive cell load versus baseline ([4]; 2 mg/kg, mean of cortex and hippocampus) | accumulation of Proteinase K-resistant α-synuclein aggregates ([4]; 20 mg/kg, 3 months, single responding animal) | α-synuclein pathology versus controls ([4]; 20 mg/kg, daily or every other day, 3 months) | qualitative α-synuclein immunostaining versus control animals ([4]; 2 and 20 mg/kg b.w. daily, 3 months, cortex and hippocampus) | α-synuclein pathology in the cortex ([4]; 3 months treatment) | adverse events most frequently reported ([3]; healthy adult subjects)
1 |  |  |  |  |  |  |  | O[C@H]1[C@H](O)[C@@H](O)[C@@H]2O[C@@H]2[C@@H]1O [CBE, conduritol-β-epoxide] | resulted in accumulation of α-synuclein in the brain |  |  |  |  |  |  |  |  |  | 
2 | good systemic exposure | no unexpected accumulation |  |  |  |  |  | OC[C@H]1CNC[C@@H](O)[C@@H]1O [Isofagomine tartrate] |  | linearly correlated with administered dose | No serious adverse events occurred | generally well tolerated | reduced the number of immunoreactive cells in the hippocampus significantly | prevented mice from the age-accompanied increase of pathology | prevents the accumulation of these α-synuclein aggregates | not effective versus controls | strongly decreased background and decreased α-synuclein positive cell numbers in some | did not reach significance level in the cortex | 
3 |  | Minimal accumulation | approximately 3.5 fold | return to near baseline levels by day 21 | linear dose-response increase | increased | no observable sex differences | OC[C@H]1CNC[C@@H](O)[C@@H]1O [Isofagomine, (3R,4R,5R)-5-(hydroxymethyl)-3,4-piperidinediol] |  |  |  |  |  |  |  |  |  |  | contact dermatitis, headache, nausea, increased serum bilirubin, dizziness, scab, ocular hyperaemia, and puncture site pain
